Laboratory results published in ChEMBL document CHEMBL5131391, “One-pot three-component synthesis of novel pyrazolo[3,4-b]pyridines as potent antileukemic agents” (Eur J Med Chem, 2022).
The source made the active and inactive calls. The rule behind the calls is not given here.

What was measured:
NCI-H322M = test: Antiproliferative activity against human NCI-H322M cells assessed as growth inhibition measured after 48 hrs by NCI protocol based SRB assay; assay type: functional
TK-10 = test: Antiproliferative activity against human TK-10 cells assessed as growth inhibition measured after 48 hrs by NCI protocol based SRB assay; assay type: functional
HT-29 = test: Antiproliferative activity against human HT-29 cells assessed as growth inhibition measured after 48 hrs by NCI protocol based SRB assay; assay type: functional
SK-OV-3 = test: Antiproliferative activity against human SK-OV-3 cells assessed as growth inhibition measured after 48 hrs by NCI protocol based SRB assay; assay type: functional
Hs-578T = test: Cytostatic activity in human Hs-578T cells assessed as tumor growth inhibition measured after 48 hrs by NCI protocol based SRB assay; assay type: functional
EKVX [1] = test: Antiproliferative activity against human EKVX cells assessed as growth inhibition measured after 48 hrs by NCI protocol based SRB assay; assay type: functional
MDA-MB-468 = test: Antiproliferative activity against human MDA-MB-468 cells assessed as growth inhibition measured after 48 hrs by NCI protocol based SRB assay; assay type: functional
EKVX [2] = test: Cytostatic activity in human EKVX cells assessed as tumor growth inhibition measured after 48 hrs by NCI protocol based SRB assay; assay type: functional
A549 [3] = test: Cytostatic activity in human A549 cells assessed as tumor growth inhibition measured after 48 hrs by NCI protocol based SRB assay; assay type: functional
HL-60(TB) = test: Antiproliferative activity against human HL-60(TB) cells assessed as growth inhibition measured after 48 hrs by NCI protocol based SRB assay; assay type: functional
LOX IMVI = test: Cytostatic activity in human LOX IMVI cells assessed as tumor growth inhibition measured after 48 hrs by NCI protocol based SRB assay; assay type: functional
A498 = test: Cytostatic activity in human A498 cells assessed as tumor growth inhibition measured after 48 hrs by NCI protocol based SRB assay; assay type: functional
SNB-75 = test: Antiproliferative activity against human SNB-75 cells assessed as growth inhibition measured after 48 hrs by NCI protocol based SRB assay; assay type: functional
SK-MEL-2 = test: Antiproliferative activity against human SK-MEL-2 cells assessed as growth inhibition measured after 48 hrs by NCI protocol based SRB assay; assay type: functional
NCI-H522 = test: Antiproliferative activity against human NCI-H522 cells assessed as growth inhibition measured after 48 hrs by NCI protocol based SRB assay; assay type: functional
IGROV-1 = test: Antiproliferative activity against human IGROV-1 cells assessed as growth inhibition measured after 48 hrs by NCI protocol based SRB assay; assay type: functional
HCT-15 = test: Cytostatic activity in human HCT-15 cells assessed as tumor growth inhibition measured after 48 hrs by NCI protocol based SRB assay; assay type: functional
MOLT-4 = test: Cytostatic activity in human MOLT-4 cells assessed as tumor growth inhibition measured after 48 hrs by NCI protocol based SRB assay; assay type: functional
OVCAR-5 = test: Antiproliferative activity against human OVCAR-5 cells assessed as growth inhibition measured after 48 hrs by NCI protocol based SRB assay; assay type: functional
BT-549 = test: Antiproliferative activity against human BT-549 cells assessed as growth inhibition measured after 48 hrs by NCI protocol based SRB assay; assay type: functional
T47D = test: Cytostatic activity in human T47D cells assessed as tumor growth inhibition measured after 48 hrs by NCI protocol based SRB assay; assay type: functional
NCI-H460 = test: Cytostatic activity in human NCI-H460 cells assessed as tumor growth inhibition measured after 48 hrs by NCI protocol based SRB assay; assay type: functional
A549 [4] = test: Antiproliferative activity against human A549 cells assessed as growth inhibition measured after 48 hrs by NCI protocol based SRB assay; assay type: functional
COLO 205 = test: Cytostatic activity in human COLO 205 cells assessed as tumor growth inhibition measured after 48 hrs by NCI protocol based SRB assay; assay type: functional
SK-MEL-28 = test: Cytostatic activity in human SK-MEL-28 cells assessed as tumor growth inhibition measured after 48 hrs by NCI protocol based SRB assay; assay type: functional
SF-539 = test: Cytostatic activity in human SF-539 cells assessed as tumor growth inhibition measured after 48 hrs by NCI protocol based SRB assay; assay type: functional
OVCAR-4 = test: Antiproliferative activity against human OVCAR-4 cells assessed as growth inhibition measured after 48 hrs by NCI protocol based SRB assay; assay type: functional
786-0 = test: Antiproliferative activity against human 786-0 cells assessed as growth inhibition measured after 48 hrs by NCI protocol based SRB assay; assay type: functional
HOP-92 = test: Cytostatic activity in human HOP-92 cells assessed as tumor growth inhibition measured after 48 hrs by NCI protocol based SRB assay; assay type: functional
SF-295 = test: Cytostatic activity in human SF-295 cells assessed as tumor growth inhibition measured after 48 hrs by NCI protocol based SRB assay; assay type: functional
UACC-62 = test: Antiproliferative activity against human UACC-62 cells assessed as growth inhibition measured after 48 hrs by NCI protocol based SRB assay; assay type: functional
SNB-19 = test: Cytostatic activity in human SNB-19 cells assessed as tumor growth inhibition measured after 48 hrs by NCI protocol based SRB assay; assay type: functional
MDA-MB-231 = test: Cytostatic activity in human MDA-MB-231 cells assessed as tumor growth inhibition measured after 48 hrs by NCI protocol based SRB assay; assay type: functional
HCT-116 = test: Antiproliferative activity against human HCT-116 cells assessed as growth inhibition measured after 48 hrs by NCI protocol based SRB assay; assay type: functional
KM12 = test: Antiproliferative activity against human KM12 cells assessed as growth inhibition measured after 48 hrs by NCI protocol based SRB assay; assay type: functional
RS4-11 [5] = test: Downregulation of MEIS1 protein expression in human RS4-11 cells at 5 to 20 uM measured after 24 hrs by Western blot analysis; assay type: functional, cell-based; conditions: dose 5-20 µM
RS4-11 [6] = test: Induction of cell cycle arrest in human RS4-11 cells assessed as accumulation of cells in subG1 phase at 1.25 to 10 uM measured after 72 hrs by PI staining based flow cytometry analysis; assay type: functional; conditions: dose 1.25-10 µM
RS4-11 [7] = test: Downregulation of HOXA9 protein expression in human RS4-11 cells at 5 to 20 uM measured after 24 hrs by Western blot analysis; assay type: functional, cell-based; conditions: dose 5-20 µM
SR = test: Antiproliferative activity against human SR cells assessed as growth inhibition at 10 uM measured after 48 hrs by NCI protocol based SRB assay relative to control; assay type: functional; conditions: read-out: GI
[8] = read-out: LC50 (the source's name)

## N#Cc1c(-c2ccccc2)nc2c(c(-c3ccccc3)nn2-c2ccccc2)c1-c1ccc(O)cc1
NCI-H322M
  GI50: 1.57 µM
NCI-H322M; [8]
  CC50: 5.56 µM
TK-10
  GI50: 2.89 µM
TK-10; [8]
  CC50: > 100 µM
HT-29
  GI50: 2.51 µM
HT-29; [8]
  CC50: 54.7 µM
SK-OV-3
  GI50: 2.87 µM
SK-OV-3; [8]
  CC50: 2.98 µM
Hs-578T
  TGI: 4.46 µM
EKVX [1]
  GI50: 1.92 µM
EKVX [1]; [8]
  CC50: 21.9 µM
MDA-MB-468
  GI50: 2.41 µM
MDA-MB-468; [8]
  CC50: 18.5 µM
EKVX [2]
  TGI: 5.1 µM
A549 [3]
  TGI: 6.87 µM
HL-60(TB)
  GI50: 3.52 µM
HL-60(TB); [8]
  CC50: > 100 µM
LOX IMVI
  TGI: 3.05 µM
A498
  TGI: 3.07 µM
SNB-75
  GI50: 2.03 µM
SNB-75; [8]
  CC50: 28.3 µM
SK-MEL-2
  GI50: 2.39 µM
SK-MEL-2; [8]
  CC50: 41.7 µM
NCI-H522
  GI50: 2.32 µM
NCI-H522; [8]
  CC50: > 100 µM
IGROV-1
  GI50: 1.8 µM
IGROV-1; [8]
  CC50: 7.28 µM
HCT-15
  TGI: 3.79 µM
MOLT-4
  TGI: 7.86 µM
OVCAR-5
  GI50: 1.75 µM
OVCAR-5; [8]
  CC50: 6.66 µM
BT-549
  GI50: 2 µM
BT-549; [8]
  CC50: 9.92 µM
T47D
  TGI: 23.8 µM
NCI-H460
  TGI: 3.26 µM
A549 [4]
  GI50: 2.57 µM
A549 [4]; [8]
  CC50: 84.2 µM
COLO 205
  TGI: 6.31 µM
SK-MEL-28
  TGI: 3.05 µM
SF-539
  TGI: 2.76 µM
OVCAR-4
  GI50: 1.95 µM
OVCAR-4; [8]
  CC50: 12.8 µM
786-0
  GI50: 2.16 µM
786-0; [8]
  CC50: 31.8 µM
HOP-92
  TGI: 4.2 µM
SF-295
  TGI: 4.29 µM
UACC-62
  GI50: 1.7 µM
UACC-62; [8]
  CC50: 5.93 µM
SNB-19
  TGI: 3.8 µM
MDA-MB-231
  TGI: 3.31 µM
HCT-116
  GI50: 2.63 µM
HCT-116; [8]
  CC50: 83.4 µM
KM12
  GI50: 2.02 µM
KM12; [8]
  CC50: 14.9 µM

## Cc1ccc(-c2nc3c(c(-c4ccccc4)nn3-c3ccccc3)c(-c3ccc(O)cc3)c2C#N)cc1
RS4-11 [5]
  Activity: Active
RS4-11 [6]
  Activity: Active
RS4-11 [7]
  Activity: Active

## N#Cc1c(-c2ccco2)nc2c(c(-c3ccccc3)nn2-c2ccccc2)c1-c1ccc(O)cc1
SR
  inhibition of growth at 10 µM: 81%
